Consider seven molecules from ChEMBL document CHEMBL1909046, “DrugMatrix in vitro pharmacology data”.

For one assay, the target named is T1, B2 bradykinin receptor (Homo sapiens, UniProt P30411). Also: in other assays of this panel Not Active means under 50% inhibition at 10 µM.
T1 sequence (P30411 whole entry): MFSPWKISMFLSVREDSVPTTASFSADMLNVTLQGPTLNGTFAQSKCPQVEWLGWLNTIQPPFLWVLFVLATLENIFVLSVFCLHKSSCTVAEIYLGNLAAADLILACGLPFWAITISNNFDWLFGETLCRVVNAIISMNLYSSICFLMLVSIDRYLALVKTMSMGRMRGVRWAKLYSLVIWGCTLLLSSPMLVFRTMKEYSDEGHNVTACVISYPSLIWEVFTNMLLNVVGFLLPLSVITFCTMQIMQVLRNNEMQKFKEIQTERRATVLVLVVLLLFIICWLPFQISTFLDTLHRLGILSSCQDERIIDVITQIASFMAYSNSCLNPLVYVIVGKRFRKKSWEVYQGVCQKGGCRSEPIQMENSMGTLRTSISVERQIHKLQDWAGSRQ
The class given is cell membranes, Membrane. The note with it: chem-1.

Assay [1] in a line: DRUGMATRIX: Sigma2 radioligand binding (ligand: [3H] Ifenprodil). Type of assay: cell membranes, Rattus norvegicus, Wistar, Brain, Membrane. Particulars: Not Active = under 50% inhibition at 10 µM.
In a further assay the target is Carbonic anhydrase 2 (Homo sapiens, UniProt P00918). The experiment in a line: DRUGMATRIX: Carbonic Anhydrase II enzyme inhibition (substrate: 4-Nitrophenyl acetate (4-NPA)). Particulars: erythrocyte; Not Active = under 50% inhibition at 10 µM. Type of assay: tissue-based, Erythrocyte.
Assay [2] addresses Prostaglandin G/H synthase 1 (Homo sapiens, UniProt P23219). The experiment in a line: biochemical. Type of assay: tissue-based, Platelet. The note with it: platelet.
The target of assay [3] is T2, 3-hydroxy-3-methylglutaryl-coenzyme A reductase (Homo sapiens, UniProt P04035).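 Also: enzyme inhibition assay of HMG-CoA reductase using radiolabeled [14C]HMG-CoA as substrate; in other assays of this panel Not Active means under 50% inhibition at 10 µM.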
T2 sequence (P04035 whole entry): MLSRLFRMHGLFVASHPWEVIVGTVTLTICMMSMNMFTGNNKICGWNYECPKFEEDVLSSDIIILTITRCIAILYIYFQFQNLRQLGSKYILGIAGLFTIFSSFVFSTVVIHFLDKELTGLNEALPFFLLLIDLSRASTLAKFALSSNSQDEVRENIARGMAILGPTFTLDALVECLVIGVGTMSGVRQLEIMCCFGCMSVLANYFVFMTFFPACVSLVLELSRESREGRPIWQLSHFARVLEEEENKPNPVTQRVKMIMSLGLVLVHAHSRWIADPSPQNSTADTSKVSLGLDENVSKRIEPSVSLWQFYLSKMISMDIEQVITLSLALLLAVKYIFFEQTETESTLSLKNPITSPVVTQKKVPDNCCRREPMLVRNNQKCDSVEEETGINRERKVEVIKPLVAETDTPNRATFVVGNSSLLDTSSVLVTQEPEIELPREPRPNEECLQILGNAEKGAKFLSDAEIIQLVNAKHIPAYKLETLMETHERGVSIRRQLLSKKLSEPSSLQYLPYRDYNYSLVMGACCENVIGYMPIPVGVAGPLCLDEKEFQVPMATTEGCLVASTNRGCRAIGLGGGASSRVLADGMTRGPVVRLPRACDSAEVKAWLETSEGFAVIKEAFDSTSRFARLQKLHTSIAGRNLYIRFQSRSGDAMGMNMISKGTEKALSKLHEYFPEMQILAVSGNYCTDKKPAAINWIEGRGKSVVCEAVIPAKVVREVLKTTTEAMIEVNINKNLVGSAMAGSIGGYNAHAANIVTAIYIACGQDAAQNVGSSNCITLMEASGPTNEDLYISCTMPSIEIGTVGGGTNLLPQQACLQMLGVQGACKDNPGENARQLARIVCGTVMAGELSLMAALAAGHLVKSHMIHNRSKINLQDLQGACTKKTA
Details: species or system Escherichia coli.

The next assay concerns the target Melanocortin receptor 4 (Homo sapiens, UniProt P32245). The class given is cell membranes, Membrane. The note with it: hek293. Also: in other assays of this panel Not Active means under 50% inhibition at 10 µM.
For assay [4], the target named is T3, Muscarinic acetylcholine receptor M4 (Homo sapiens, UniProt P08173). Also: in other assays of this panel Not Active means under 50% inhibition at 10 µM.
T3 sequence (P08173 whole entry): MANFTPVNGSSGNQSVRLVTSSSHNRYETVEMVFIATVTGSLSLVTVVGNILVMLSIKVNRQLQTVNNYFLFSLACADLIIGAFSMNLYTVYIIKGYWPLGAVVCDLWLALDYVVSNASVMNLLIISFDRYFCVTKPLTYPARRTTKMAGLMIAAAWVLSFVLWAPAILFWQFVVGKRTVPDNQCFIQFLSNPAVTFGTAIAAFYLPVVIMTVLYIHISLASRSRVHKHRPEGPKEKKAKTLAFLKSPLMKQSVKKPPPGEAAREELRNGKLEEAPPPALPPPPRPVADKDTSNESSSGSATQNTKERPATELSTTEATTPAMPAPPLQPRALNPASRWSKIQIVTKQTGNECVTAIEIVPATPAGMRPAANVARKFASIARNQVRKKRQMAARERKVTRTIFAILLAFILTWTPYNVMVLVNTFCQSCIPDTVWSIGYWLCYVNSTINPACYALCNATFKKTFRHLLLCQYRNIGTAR
The class given is cell membranes, CHO-K1, Membrane. Particulars: cho-k1.

Assay [5] concerns the target Kappa-type opioid receptor (Homo sapiens, UniProt P41145). Description: DRUGMATRIX: Opiate kappa (OP2, KOP) radioligand binding (ligand: [3H] Diprenorphine). The note with it: hek293; Not Active = under 50% inhibition at 10 µM. The class given is cell membranes, HEK293, Membrane.
The nature of assay [6]: DRUGMATRIX: Potassium Channel [KATP] radioligand binding (ligand: [3H] Glyburide). Type of assay: cell membranes, Membrane. The note with it: hit-t15; Not Active = under 50% inhibition at 10 µM.
The target in another assay is T4, Caspase-1 (Homo sapiens, UniProt P29466).
T4 sequence (P29466 whole entry): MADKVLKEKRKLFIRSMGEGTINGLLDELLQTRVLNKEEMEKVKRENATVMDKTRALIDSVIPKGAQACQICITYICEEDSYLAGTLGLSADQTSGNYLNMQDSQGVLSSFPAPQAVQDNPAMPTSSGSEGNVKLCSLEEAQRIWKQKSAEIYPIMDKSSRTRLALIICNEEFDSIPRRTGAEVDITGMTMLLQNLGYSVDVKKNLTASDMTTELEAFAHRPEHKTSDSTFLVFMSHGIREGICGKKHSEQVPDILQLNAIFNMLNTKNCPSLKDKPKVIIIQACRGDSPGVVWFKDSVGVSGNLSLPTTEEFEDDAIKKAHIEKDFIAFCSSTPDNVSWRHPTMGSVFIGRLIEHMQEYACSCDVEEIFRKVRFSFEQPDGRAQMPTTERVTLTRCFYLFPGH
Details: species or system Escherichia coli.

Assay [7] has as its target Matrix metalloproteinase-9 (Homo sapiens, UniProt P14780). The class given is cell-based.
For assay [8], the target named is Mitogen-activated protein kinase 1 (Homo sapiens, UniProt P28482). Description: DRUGMATRIX: Protein Serine/Threonine Kinase, ERK2 enzyme inhibition (substrate: Myelin Basic Protein). Set-up: species or system Escherichia coli. Particulars: Not Active = under 50% inhibition at 10 µM.
In the next assay the target is Acetylcholinesterase (Homo sapiens, UniProt P22303). The experiment in a line: DRUGMATRIX: Acetylcholinesterase enzyme inhibition (substrate: acetylthiocholine). The note with it: hek293; Not Active = under 50% inhibition at 10 µM. Type of assay: cell-based, HEK293.

Each structure is given as a SMILES string. pIC50, pKi: −log10 of the molar value.

Kappa-type opioid receptor, sequence (P41145 whole entry): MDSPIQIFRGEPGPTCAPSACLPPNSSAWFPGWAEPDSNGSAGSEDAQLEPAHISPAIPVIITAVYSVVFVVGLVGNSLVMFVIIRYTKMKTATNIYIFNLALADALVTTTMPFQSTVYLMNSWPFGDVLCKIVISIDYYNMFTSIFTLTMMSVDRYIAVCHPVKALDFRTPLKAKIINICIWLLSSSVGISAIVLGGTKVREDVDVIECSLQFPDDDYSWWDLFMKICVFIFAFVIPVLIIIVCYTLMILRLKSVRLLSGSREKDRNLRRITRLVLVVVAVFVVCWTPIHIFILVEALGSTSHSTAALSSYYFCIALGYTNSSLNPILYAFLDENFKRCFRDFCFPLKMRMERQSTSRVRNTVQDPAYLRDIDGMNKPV
Acetylcholinesterase, sequence (P22303 whole entry): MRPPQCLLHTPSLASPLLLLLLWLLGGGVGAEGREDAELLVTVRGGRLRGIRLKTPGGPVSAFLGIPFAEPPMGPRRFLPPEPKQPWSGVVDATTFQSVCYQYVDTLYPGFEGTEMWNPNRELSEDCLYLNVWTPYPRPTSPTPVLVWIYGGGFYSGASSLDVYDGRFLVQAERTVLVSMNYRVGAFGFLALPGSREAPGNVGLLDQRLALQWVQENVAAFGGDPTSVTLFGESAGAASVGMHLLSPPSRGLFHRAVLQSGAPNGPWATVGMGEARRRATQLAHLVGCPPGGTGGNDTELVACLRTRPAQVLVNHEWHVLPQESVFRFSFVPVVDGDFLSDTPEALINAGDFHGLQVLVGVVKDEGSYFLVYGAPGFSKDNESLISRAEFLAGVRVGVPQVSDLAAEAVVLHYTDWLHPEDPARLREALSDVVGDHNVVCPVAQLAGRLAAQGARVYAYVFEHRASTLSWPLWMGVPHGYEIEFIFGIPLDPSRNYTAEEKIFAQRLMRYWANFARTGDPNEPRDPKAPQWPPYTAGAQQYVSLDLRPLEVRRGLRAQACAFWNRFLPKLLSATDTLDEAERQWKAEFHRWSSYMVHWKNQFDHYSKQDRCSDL
Prostaglandin G/H synthase 1, sequence (P23219 whole entry): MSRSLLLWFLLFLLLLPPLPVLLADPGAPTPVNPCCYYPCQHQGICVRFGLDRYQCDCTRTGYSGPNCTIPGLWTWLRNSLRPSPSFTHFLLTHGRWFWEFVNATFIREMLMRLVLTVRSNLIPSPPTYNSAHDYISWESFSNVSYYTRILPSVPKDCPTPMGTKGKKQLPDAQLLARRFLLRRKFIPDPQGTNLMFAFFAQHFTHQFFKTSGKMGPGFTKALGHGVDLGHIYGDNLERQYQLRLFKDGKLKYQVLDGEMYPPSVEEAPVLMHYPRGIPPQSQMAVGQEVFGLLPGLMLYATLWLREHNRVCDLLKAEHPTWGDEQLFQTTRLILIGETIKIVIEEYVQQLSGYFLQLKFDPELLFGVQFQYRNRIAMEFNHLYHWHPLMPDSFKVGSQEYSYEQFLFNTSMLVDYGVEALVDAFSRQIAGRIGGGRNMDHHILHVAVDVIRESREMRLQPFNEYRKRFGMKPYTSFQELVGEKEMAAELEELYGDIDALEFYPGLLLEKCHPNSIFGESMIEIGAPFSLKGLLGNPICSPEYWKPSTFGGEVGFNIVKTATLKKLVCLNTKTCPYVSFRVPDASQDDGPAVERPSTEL
Matrix metalloproteinase-9, sequence (P14780 whole entry): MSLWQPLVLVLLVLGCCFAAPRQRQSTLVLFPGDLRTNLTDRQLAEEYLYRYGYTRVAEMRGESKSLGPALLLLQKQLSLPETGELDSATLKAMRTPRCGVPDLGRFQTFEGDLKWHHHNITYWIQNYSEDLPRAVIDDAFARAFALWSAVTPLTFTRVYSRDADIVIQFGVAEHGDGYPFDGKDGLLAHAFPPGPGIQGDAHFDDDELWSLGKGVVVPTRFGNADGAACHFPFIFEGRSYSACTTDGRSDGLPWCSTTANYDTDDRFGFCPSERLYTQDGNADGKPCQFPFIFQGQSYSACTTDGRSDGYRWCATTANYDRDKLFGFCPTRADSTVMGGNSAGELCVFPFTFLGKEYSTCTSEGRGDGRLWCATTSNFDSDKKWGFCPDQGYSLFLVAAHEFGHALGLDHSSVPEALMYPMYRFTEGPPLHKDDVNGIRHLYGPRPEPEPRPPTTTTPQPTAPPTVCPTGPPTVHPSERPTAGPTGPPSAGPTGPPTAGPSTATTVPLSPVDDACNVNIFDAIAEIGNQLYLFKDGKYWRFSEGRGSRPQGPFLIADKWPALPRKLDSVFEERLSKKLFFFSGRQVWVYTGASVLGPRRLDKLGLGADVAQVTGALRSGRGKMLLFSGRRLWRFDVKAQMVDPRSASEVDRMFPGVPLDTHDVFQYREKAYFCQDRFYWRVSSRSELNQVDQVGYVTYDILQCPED
Mitogen-activated protein kinase 1, sequence (P28482 whole entry): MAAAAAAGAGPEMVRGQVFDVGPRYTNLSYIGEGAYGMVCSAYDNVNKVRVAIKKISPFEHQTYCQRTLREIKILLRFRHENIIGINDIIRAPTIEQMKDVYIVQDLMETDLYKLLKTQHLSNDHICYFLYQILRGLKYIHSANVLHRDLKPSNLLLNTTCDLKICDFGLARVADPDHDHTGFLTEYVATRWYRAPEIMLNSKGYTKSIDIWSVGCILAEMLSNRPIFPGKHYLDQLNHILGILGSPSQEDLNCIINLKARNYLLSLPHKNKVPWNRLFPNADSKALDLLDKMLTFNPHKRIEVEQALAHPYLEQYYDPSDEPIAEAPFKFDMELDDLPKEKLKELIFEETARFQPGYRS
Melanocortin receptor 4, sequence (P32245 whole entry): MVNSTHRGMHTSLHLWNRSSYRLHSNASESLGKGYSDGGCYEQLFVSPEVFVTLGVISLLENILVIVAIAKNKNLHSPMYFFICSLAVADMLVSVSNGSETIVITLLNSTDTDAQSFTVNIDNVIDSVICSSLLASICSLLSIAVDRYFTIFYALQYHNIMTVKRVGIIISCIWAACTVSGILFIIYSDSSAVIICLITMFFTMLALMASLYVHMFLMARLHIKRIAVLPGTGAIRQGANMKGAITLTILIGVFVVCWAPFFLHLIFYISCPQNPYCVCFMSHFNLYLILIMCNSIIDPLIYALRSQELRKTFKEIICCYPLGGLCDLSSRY

Usually pIC50 stands for −log10 of the IC50, conventionally taken in molar units. What is called pKi is the Ki on a negative log10 scale, so that one unit is a factor of ten. As for `CC(CCc1ccccc1)NCC(O)c1ccc(O)c(C(N)=O)c1` (stereo not given) [LABETALOL], the IC50 entry (against B2 bradykinin receptor; against Carbonic anhydrase 2; in assay [2]; in assay [3]; against Melanocortin receptor 4; in assay [4]) was “Not Active” in each case. For the same molecule, the IC50 result (in assay [5]; in assay [6]; at Caspase-1; in [7]; in [8]; at Acetylcholinesterase) was “Not Active” each time. Moreover, in assay [1] (read-out: IC50), the pIC50 was 5.55. Further, in assay [1] (read-out: Ki), the pKi is 5.76. Also, in assay [6], the Ki entry is recorded as “Not Active”.
For the molecule `Nc1nnc(-c2cccc(Cl)c2Cl)c(N)n1` [LAMOTRIGINE], the IC50 result (at B2 bradykinin receptor; in assay [1]; at Carbonic anhydrase 2; in assay [2]; in assay [3]; at Melanocortin receptor 4) was “Not Active” in each case. The IC50 entry (in [4]; in assay [5]; in assay [6]; on Caspase-1; in assay [7]; in [8]) was “Not Active” each time. Besides, at Acetylcholinesterase, the IC50 result was “Not Active”. Also, the Ki result in assay [1] and in assay [6] was “Not Active” in each case.
Take `CCC[C@@H]1C[C@@H](C(=O)N[C@@H]([C@H]2O[C@H](SC)[C@H](O)[C@@H](O)[C@H]2O)[C@@H](C)O)N(C)C1` [LINCOMYCIN]: the IC50 entry (on B2 bradykinin receptor; in assay [1]; against Carbonic anhydrase 2; in assay [2]; in assay [3]; against Melanocortin receptor 4) was “Not Active” throughout. The IC50 result (in assay [4]; in [5]; in assay [6]; on Caspase-1; in assay [7]; in [8]) was “Not Active” each time. The IC50 entry against Acetylcholinesterase is “Not Active”. Further, the Ki entry in assay [1] and in [6] was “Not Active” in each case.
As to `COS(C)(=O)=O` [METHANESULFONIC ACID METHYL ESTER], the IC50 entry (on B2 bradykinin receptor; in [1]; on Carbonic anhydrase 2; in assay [2]; in [3]; at Melanocortin receptor 4) was “Not Active” each time. Moreover, the IC50 result (in assay [4]; in assay [5]; in assay [6]; against Caspase-1; in [7]; in assay [8]) was “Not Active” each time. Further, the IC50 result on Acetylcholinesterase was “Not Active”. Also, the Ki entry in assay [1] and in [6] was “Not Active” throughout.
As for `COC(=O)c1ccc(O)cc1` [METHYLPARABEN], the IC50 entry (against B2 bradykinin receptor; in assay [1]; against Carbonic anhydrase 2; in assay [2]; in assay [3]; at Melanocortin receptor 4) was “Not Active” each time. Besides, the IC50 result (in [4]; in assay [5]; in assay [6]; on Caspase-1; in [7]; in [8]) was “Not Active” throughout. Besides, the IC50 entry on Acetylcholinesterase is reported as “Not Active”. Further, the Ki result in assay [1] and in assay [6] was “Not Active” in each case.
For the molecule `C[C@](N)(Cc1ccc(O)cc1)C(=O)O` [METYROSINE], the IC50 entry (at B2 bradykinin receptor; in [1]; at Carbonic anhydrase 2; in [2]; in assay [3]; against Melanocortin receptor 4) was “Not Active” throughout. Moreover, the IC50 result (in assay [4]; in assay [5]; in assay [6]; on Caspase-1; in assay [7]; in assay [8]) was “Not Active” each time. Besides, the IC50 entry on Acetylcholinesterase is listed as “Not Active”. For the same molecule, the Ki entry in assay [1] and in assay [6] was “Not Active” throughout.
Regarding `Clc1ccc(C(c2ccccc2Cl)C(Cl)Cl)cc1` (stereo not given) [MITOTANE], the IC50 result (against B2 bradykinin receptor; in assay [1]; at Carbonic anhydrase 2; in [2]; in assay [3]; at Melanocortin receptor 4) was “Not Active” in each case. Moreover, the IC50 entry (in assay [4]; in assay [5]; in assay [6]; at Caspase-1; in [7]; in assay [8]) was “Not Active” in each case. In addition, the IC50 entry against Acetylcholinesterase was “Not Active”. The Ki entry in [1] and in assay [6] was “Not Active” each time.
